According to ChEMBL document CHEMBL3352762 (J Med Chem, 2014):
Active and inactive are the calls of the source. The rule behind the calls is not given here. Peptide text beside a SMILES is read from it.

Assays:
Urotensin-2 receptor [1] = biological target: T1, Urotensin-2 receptor (Homo sapiens, UniProt Q9UKP6); experiment: Displacement of [125I]urotensin-2 from human recombinant UT receptor expressed in CHO-K1 cells by scintillation counting method; format: cell-based
T1 sequence (Q9UKP6 whole entry): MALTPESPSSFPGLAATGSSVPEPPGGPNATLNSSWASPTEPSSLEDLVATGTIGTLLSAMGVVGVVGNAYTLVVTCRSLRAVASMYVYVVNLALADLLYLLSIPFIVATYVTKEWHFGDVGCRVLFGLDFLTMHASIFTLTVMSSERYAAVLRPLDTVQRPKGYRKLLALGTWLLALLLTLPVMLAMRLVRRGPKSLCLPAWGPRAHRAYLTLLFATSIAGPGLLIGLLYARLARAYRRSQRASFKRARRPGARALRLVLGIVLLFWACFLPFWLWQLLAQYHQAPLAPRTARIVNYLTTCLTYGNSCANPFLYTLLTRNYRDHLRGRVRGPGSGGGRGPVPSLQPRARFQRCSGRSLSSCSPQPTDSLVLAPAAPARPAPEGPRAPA

[2] = biological target: T2, Urotensin-2 receptor (Rattus norvegicus) (UniProt P49684); experiment: Agonist activity at UT receptor in rat aorta assessed as contraction relative to urotensin-2; format: tissue-based
T2 sequence (whole entry): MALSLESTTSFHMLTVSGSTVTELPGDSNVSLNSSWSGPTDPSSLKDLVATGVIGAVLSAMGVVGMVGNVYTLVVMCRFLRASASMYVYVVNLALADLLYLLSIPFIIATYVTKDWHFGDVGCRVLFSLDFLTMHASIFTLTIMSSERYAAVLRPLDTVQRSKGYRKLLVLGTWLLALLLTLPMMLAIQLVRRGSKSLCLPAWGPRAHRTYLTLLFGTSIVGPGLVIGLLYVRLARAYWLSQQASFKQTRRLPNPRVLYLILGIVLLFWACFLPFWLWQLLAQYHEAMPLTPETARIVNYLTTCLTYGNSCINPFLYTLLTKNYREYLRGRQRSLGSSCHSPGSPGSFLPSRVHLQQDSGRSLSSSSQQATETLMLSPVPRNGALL

Urotensin-2 receptor [3] = biological target: T3, Urotensin-2 receptor (Rattus norvegicus, UniProt P49684); experiment: (§1) Agonist activity at UT receptor in rat aorta assessed as contraction; format: tissue-based
T3 sequence (P49684 whole entry): T2 sequence (whole entry)

[4] = biological target: T2, Urotensin-2 receptor (Rattus norvegicus); experiment: Competitive antagonist activity at UT receptor in rat aorta assessed as effect on urotensin-2-induced contraction; format: tissue-based
[5] = biological target: T4, Urotensin-2 receptor (Homo sapiens) (UniProt Q9UKP6); experiment: Partial agonist activity at human recombinant UT receptor expressed in CHO-K1 cells assessed as stimulation of intracellular calcium mobilization at 1 uM by FLIPR assay relative to urotensin-2; format: functional, cell-based
T4 sequence (whole entry): T1 sequence (Q9UKP6 whole entry)

[6] = biological target: T4, Urotensin-2 receptor (Homo sapiens); experiment: Partial agonist activity at human recombinant UT receptor expressed in CHO-K1 cells assessed as stimulation of intracellular calcium mobilization by FLIPR assay; format: functional, cell-based
[7] = biological target: T2, Urotensin-2 receptor (Rattus norvegicus); experiment: as §1; format: tissue-based
[8] = biological target: T4, Urotensin-2 receptor (Homo sapiens); experiment: Partial agonist activity at human recombinant UT receptor expressed in CHO-K1 cells assessed as stimulation of intracellular calcium mobilization at 10 uM by FLIPR assay relative to urotensin-2; format: functional, cell-based
[9] = Stability in 25% fetal calf serum assessed as parent compound remaining at 80 uM at 37 degC after 16 hrs by RP-HPLC-UV based detection assay; format: ADME, Bos taurus; conditions: cattle, read-out: Stability
[10] = Stability in 25% fetal calf serum assessed as parent compound remaining at 80 uM at 37 degC after 36 hrs by RP-HPLC-UV based detection assay; format: ADME, Bos taurus; conditions: cattle, read-out: Stability

Row | SMILES | Ki (Urotensin-2 receptor [1]) [nM] | Emax [2] [%] | EC50 (Urotensin-2 receptor [3]) [nM] | pKb [4] | Efficacy [5] [%] | Activity [6] | pEC50 [7] | Efficacy [8] [%] | remaining at 16 h, 80 µM [9] [%] | remaining at 36 h, 80 µM [10] [%]
1 | CC(C)[C@H](NC(=O)[C@@H]1CSSC(C)(C)[C@H](NC(=O)[C@@H](N)CC(=O)O)C(=O)N[C@@H](Cc2ccccc2)C(=O)N[C@H](Cc2c[nH]c3ccccc23)C(=O)N[C@@H](CCCN)C(=O)N[C@@H](Cc2cccc3ccccc23)C(=O)N1)C(=O)O | 6.46 | 37 | 18.2 |  |  |  |  |  |  | 
2 | CC(C)[C@H](NC(=O)[C@@H]1CSSC(C)(C)[C@H](NC(=O)[C@@H](N)CC(=O)O)C(=O)N[C@@H](Cc2ccccc2)C(=O)N[C@H](Cc2c[nH]c3ccccc23)C(=O)N[C@@H](CCCN)C(=O)N[C@@H](Cc2nc3ccccc3s2)C(=O)N1)C(=O)O | 12.9 | 57 | 33.9 |  |  |  |  |  |  | 
3 | CC(C)[C@H](NC(=O)[C@@H]1CSSC[C@H](NC(=O)[C@@H](N)CC(=O)O)C(=O)N[C@@H](Cc2ccccc2)C(=O)N[C@@H](Cc2c[nH]c3ccccc23)C(=O)N[C@@H](CCCCN)C(=O)N[C@@H](Cc2ccc(O)cc2)C(=O)N1)C(=O)O (HELM PEPTIDE1{D.C.F.W.K.Y.C.V}$PEPTIDE1,PEPTIDE1,2:R3-7:R3$$$V2.0) | 0.251 | 100 | 3.63 |  |  |  |  |  | < 50 | 
4 | CC(C)[C@H](NC(=O)[C@@H]1CSSC(C)(C)[C@H](NC(=O)[C@@H](N)CC(=O)O)C(=O)N[C@@H](Cc2ccccc2)C(=O)N[C@@H](Cc2c[nH]c3ccccc23)C(=O)N[C@@H](CCCCN)C(=O)N[C@@H](Cc2ccc(C#N)cc2)C(=O)N1)C(=O)O (HELM PEPTIDE1{D.[Pen].F.W.K.[N#Cc1ccc(C[C@H](N[*:1])C(=O)[*:2])cc1].C.V}$PEPTIDE1,PEPTIDE1,2:R3-7:R3$$$V2.0) | 1.82 | 79 | 1.07 |  |  |  |  |  |  | 
5 | CC(C)[C@H](NC(=O)[C@@H]1CSSC(C)(C)[C@H](NC(=O)[C@@H](N)CC(=O)O)C(=O)N[C@@H](Cc2ccccc2)C(=O)N[C@@H](Cc2c[nH]c3ccccc23)C(=O)N[C@@H](CCCCN)C(=O)N[C@@H](Cc2ccc3ccccc3c2)C(=O)N1)C(=O)O (HELM PEPTIDE1{D.[Pen].F.W.K.[O=C([C@H](Cc1ccc2ccccc2c1)N[*:1])[*:2]].C.V}$PEPTIDE1,PEPTIDE1,2:R3-7:R3$$$V2.0) | 2 | 85 | 0.724 |  |  |  |  |  |  | 
6 | CC(C)[C@H](NC(=O)[C@@H]1CSSC(C)(C)[C@H](NC(=O)[C@@H](N)CC(=O)O)C(=O)N[C@@H](Cc2ccccc2)C(=O)N[C@@H](Cc2c[nH]c3ccccc23)C(=O)N[C@@H](CCCCN)C(=O)N[C@@H](Cc2ccc(Cl)cc2)C(=O)N1)C(=O)O (HELM PEPTIDE1{D.[Pen].F.W.K.[O=C([C@H](Cc1ccc(Cl)cc1)N[*:1])[*:2]].C.V}$PEPTIDE1,PEPTIDE1,2:R3-7:R3$$$V2.0) | 1.23 | 85 | 0.813 |  |  |  |  |  |  | 
7 | CC(C)[C@H](NC(=O)[C@@H]1CSSC(C)(C)[C@H](NC(=O)[C@@H](N)CC(=O)O)C(=O)N[C@@H](Cc2ccccc2)C(=O)N[C@@H](Cc2c[nH]c3ccccc23)C(=O)N[C@@H](CCCCN)C(=O)N[C@@H](Cc2ccc([N+](=O)[O-])cc2)C(=O)N1)C(=O)O (HELM PEPTIDE1{D.[Pen].F.W.K.[O=C([C@H](Cc1ccc([N+](=O)[O-])cc1)N[*:1])[*:2]].C.V}$PEPTIDE1,PEPTIDE1,2:R3-7:R3$$$V2.0) | 1.78 | 95 | 0.631 |  |  |  |  |  |  | 
8 | CC(C)[C@H](NC(=O)[C@@H]1CSSC(C)(C)[C@H](NC(=O)[C@@H](N)CC(=O)O)C(=O)N[C@@H](Cc2ccccc2)C(=O)N[C@@H](Cc2c[nH]c3ccccc23)C(=O)N[C@@H](CCCCN)C(=O)N[C@@H](Cc2cccc3ccccc23)C(=O)N1)C(=O)O (HELM PEPTIDE1{D.[Pen].F.W.K.[O=C([C@H](Cc1cccc2ccccc12)N[*:1])[*:2]].C.V}$PEPTIDE1,PEPTIDE1,2:R3-7:R3$$$V2.0) | 0.398 | 86 | 5.01 |  |  |  |  |  |  | 
9 | CC(C)[C@H](NC(=O)[C@@H]1CSSC(C)(C)[C@H](NC(=O)[C@@H](N)CC(=O)O)C(=O)N[C@@H](Cc2ccccc2)C(=O)N[C@@H](Cc2c[nH]c3ccccc23)C(=O)N[C@@H](CCCCN)C(=O)N[C@@H](Cc2nc3ccccc3s2)C(=O)N1)C(=O)O (HELM PEPTIDE1{D.[Pen].F.W.K.[O=C([C@H](Cc1nc2ccccc2s1)N[*:1])[*:2]].C.V}$PEPTIDE1,PEPTIDE1,2:R3-7:R3$$$V2.0) | 1.74 | 89 | 0.0195 |  |  |  |  |  |  | 
10 | CC(C)[C@H](NC(=O)[C@@H]1CSSC[C@H](NC(=O)[C@H](CC(=O)O)NC(=O)[C@@H]2CCCN2C(=O)[C@@H](NC(=O)[C@@H](N)CCC(=O)O)[C@@H](C)O)C(=O)N[C@@H](Cc2ccccc2)C(=O)N[C@@H](Cc2c[nH]c3ccccc23)C(=O)N[C@@H](CCCCN)C(=O)N[C@@H](Cc2ccc(O)cc2)C(=O)N1)C(=O)O [UROTENSIN-II] |  | 100 | 3.16 |  |  |  |  |  |  | 

The next lines start with the values.

Row | Ki (Urotensin-2 receptor [1]) [nM] | Emax [2] [%] | EC50 (Urotensin-2 receptor [3]) [nM] | pKb [4] | Efficacy [5] [%] | Activity [6] | pEC50 [7] | Efficacy [8] [%] | remaining at 16 h, 80 µM [9] [%] | remaining at 36 h, 80 µM [10] [%] | SMILES
11 | 0.724 | 13 | 3.8 |  |  |  |  |  |  |  | CC(C)[C@H](NC(=O)[C@@H]1CSSC(C)(C)[C@H](NC(=O)[C@@H](N)CC(=O)O)C(=O)N[C@@H](Cc2ccccc2)C(=O)N[C@H](Cc2c[nH]c3ccccc23)C(=O)N[C@@H](CCCN)C(=O)N[C@@H](Cc2ccc3ccccc3c2)C(=O)N1)C(=O)O
12 | 1.05 | 13 | 2.69 |  |  |  |  |  |  |  | CC(C)[C@H](NC(=O)[C@@H]1CSSC(C)(C)[C@H](NC(=O)[C@@H](N)CC(=O)O)C(=O)N[C@@H](Cc2ccccc2)C(=O)N[C@H](Cc2c[nH]c3ccccc23)C(=O)N[C@@H](CCCN)C(=O)N[C@@H](Cc2ccc(Cl)cc2)C(=O)N1)C(=O)O
13 | 2.24 | 26 | 12.9 |  |  |  |  |  |  |  | CC(C)[C@H](NC(=O)[C@@H]1CSSC(C)(C)[C@H](NC(=O)[C@@H](N)CC(=O)O)C(=O)N[C@@H](Cc2ccccc2)C(=O)N[C@H](Cc2c[nH]c3ccccc23)C(=O)N[C@@H](CCCN)C(=O)N[C@@H](Cc2ccc(Cl)c(Cl)c2)C(=O)N1)C(=O)O
14 | 17 | 0 |  | 8.12 | 56.5 | Active | inactive | 61.2 |  |  | CC(C)[C@H](NC(=O)[C@@H]1CSSC(C)(C)[C@H](NC(=O)[C@@H](N)CC(=O)O)C(=O)N[C@@H](Cc2ccccc2)C(=O)N[C@H](Cc2c[nH]c3ccccc23)C(=O)N[C@@H](CCCN)C(=O)N[C@@H](Cc2ccc([N+](=O)[O-])cc2)C(=O)N1)C(=O)O
15 |  | 0 |  | 8.32 | 43.3 | Active | inactive | 46.2 |  |  | CC(C)[C@H](NC(=O)[C@@H]1CSSC(C)(C)[C@@H](NC(=O)[C@@H](N)CC(=O)O)C(=O)N[C@@H](Cc2ccccc2)C(=O)N[C@H](Cc2c[nH]c3ccccc23)C(=O)N[C@@H](CCCN)C(=O)N[C@@H](Cc2ccc(O)cc2)C(=O)N1)C(=O)O (HELM PEPTIDE1{D.[CC(C)(S[*:3])[C@@H](N[*:1])C(=O)[*:2]].F.[dW].[Orn].Y.C.V}$PEPTIDE1,PEPTIDE1,2:R3-7:R3$$$V2.0)
16 | 0.2 | 95 | 0.398 |  |  |  |  |  | 65 | 45 | CC(C)[C@H](NC(=O)[C@@H]1CSSC(C)(C)[C@H](NC(=O)[C@@H](N)CC(=O)O)C(=O)N[C@@H](Cc2ccccc2)C(=O)N[C@@H](Cc2c[nH]c3ccccc23)C(=O)N[C@@H](CCCCN)C(=O)N[C@@H](Cc2ccc(O)cc2)C(=O)N1)C(=O)O (HELM PEPTIDE1{D.[Pen].F.W.K.Y.C.V}$PEPTIDE1,PEPTIDE1,2:R3-7:R3$$$V2.0)
17 | 0.776 | 102 | 0.0126 |  |  |  |  |  | > 70 | > 50 | CC(C)[C@H](NC(=O)[C@@H]1CSSC(C)(C)[C@H](NC(=O)[C@@H](N)CC(=O)O)C(=O)N[C@@H](Cc2ccccc2)C(=O)N[C@@H](Cc2c[nH]c3ccccc23)C(=O)N[C@@H](CCCCN)C(=O)N[C@@H](Cc2ccc(Cl)c(Cl)c2)C(=O)N1)C(=O)O (HELM PEPTIDE1{D.[Pen].F.W.K.[O=C([C@H](Cc1ccc(Cl)c(Cl)c1)N[*:1])[*:2]].C.V}$PEPTIDE1,PEPTIDE1,2:R3-7:R3$$$V2.0)
18 |  |  |  |  |  |  |  |  |  | > 50 | CC(C)[C@H](NC(=O)[C@@H]1CSSC(C)(C)[C@H](NC(=O)[C@@H](N)CC(=O)O)C(=O)N[C@@H](Cc2ccccc2)C(=O)N[C@H](Cc2c[nH]c3ccccc23)C(=O)N[C@@H](CCCN)C(=O)N[C@@H](Cc2ccc(O)cc2)C(=O)N1)C(=O)O [URANTIDE] (HELM PEPTIDE1{D.[Pen].F.[dW].[Orn].Y.C.V}$PEPTIDE1,PEPTIDE1,2:R3-7:R3$$$V2.0)
